Experimental data as given in patent US7868188B2, “5-heteroaryl thiazoles and their use as PI3K inhibitors” (AstraZeneca AB, priority 2004, dated 2011).
Where a name gives a salt, the structure may show the parent alone.

The compounds below were run against T1, p110α Type Ia human PI3K (Homo sapiens, UniProt P42336) (assay: Test (a) In Vitro PI3K Enzyme Assay (AlphaScreen)). Settings: read-out: IC50 versus p110α PI3K.
T1 construct: full length DNA of each of the p110α, p110β and p110δ Type Ia human PI3K p110 isoforms; 6-His; made in house; host or cells: baculovirus expression system (Sf9 is named only for PI3Kγ)
T1 sequence (P42336 whole entry, canonical isoform): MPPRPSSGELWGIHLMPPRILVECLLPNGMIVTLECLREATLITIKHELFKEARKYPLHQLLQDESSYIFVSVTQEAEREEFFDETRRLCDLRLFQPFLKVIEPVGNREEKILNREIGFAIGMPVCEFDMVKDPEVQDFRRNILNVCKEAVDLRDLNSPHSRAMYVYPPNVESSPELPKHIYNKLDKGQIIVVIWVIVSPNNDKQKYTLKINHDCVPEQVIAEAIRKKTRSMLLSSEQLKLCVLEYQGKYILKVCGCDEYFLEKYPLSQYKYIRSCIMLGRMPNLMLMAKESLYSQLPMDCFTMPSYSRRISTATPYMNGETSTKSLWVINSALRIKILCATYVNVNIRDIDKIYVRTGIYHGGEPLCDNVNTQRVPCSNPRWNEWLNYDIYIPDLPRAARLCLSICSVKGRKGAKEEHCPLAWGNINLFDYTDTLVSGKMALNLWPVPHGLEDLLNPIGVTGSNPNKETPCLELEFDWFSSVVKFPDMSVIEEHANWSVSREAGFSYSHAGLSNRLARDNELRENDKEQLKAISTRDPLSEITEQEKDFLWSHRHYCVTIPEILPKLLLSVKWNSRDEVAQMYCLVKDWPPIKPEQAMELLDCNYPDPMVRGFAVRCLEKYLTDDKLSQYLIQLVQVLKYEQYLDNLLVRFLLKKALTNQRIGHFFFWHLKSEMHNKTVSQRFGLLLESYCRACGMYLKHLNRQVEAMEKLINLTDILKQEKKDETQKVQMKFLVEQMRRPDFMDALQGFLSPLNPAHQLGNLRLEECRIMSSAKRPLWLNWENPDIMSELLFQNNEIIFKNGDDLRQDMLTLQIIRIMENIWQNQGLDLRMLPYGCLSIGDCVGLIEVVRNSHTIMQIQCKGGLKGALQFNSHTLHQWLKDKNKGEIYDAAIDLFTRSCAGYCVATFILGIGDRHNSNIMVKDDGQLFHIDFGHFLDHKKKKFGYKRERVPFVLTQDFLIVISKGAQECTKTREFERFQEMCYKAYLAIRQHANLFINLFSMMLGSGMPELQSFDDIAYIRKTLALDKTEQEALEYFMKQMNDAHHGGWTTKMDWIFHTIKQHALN
T1 sequence (P27986 whole entry partner, canonical isoform): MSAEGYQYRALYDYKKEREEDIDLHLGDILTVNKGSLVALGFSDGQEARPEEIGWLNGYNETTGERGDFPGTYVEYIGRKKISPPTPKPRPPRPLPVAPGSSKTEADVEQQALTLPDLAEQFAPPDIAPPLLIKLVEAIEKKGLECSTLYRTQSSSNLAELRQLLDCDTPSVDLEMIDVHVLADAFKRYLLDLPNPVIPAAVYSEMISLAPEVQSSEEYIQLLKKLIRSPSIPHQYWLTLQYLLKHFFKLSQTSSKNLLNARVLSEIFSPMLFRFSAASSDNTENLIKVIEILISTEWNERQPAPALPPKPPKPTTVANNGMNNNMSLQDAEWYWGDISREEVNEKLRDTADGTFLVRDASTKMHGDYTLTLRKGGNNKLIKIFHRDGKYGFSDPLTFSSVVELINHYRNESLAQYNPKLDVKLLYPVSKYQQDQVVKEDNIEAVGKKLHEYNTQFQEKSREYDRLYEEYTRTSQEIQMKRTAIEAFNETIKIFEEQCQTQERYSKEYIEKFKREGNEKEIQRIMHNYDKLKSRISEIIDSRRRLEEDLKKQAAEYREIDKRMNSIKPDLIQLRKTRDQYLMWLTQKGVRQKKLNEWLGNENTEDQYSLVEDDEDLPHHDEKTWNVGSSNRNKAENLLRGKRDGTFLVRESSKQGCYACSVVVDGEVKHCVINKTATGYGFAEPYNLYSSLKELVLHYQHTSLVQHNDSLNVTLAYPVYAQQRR
Assay type: biochemical
Text: The assay used AlphaScreen technology (Gray et al., Analytical Biochemistry, 2003, 313: 234-245) to determine the ability of test compounds to inhibit phosphorylation by recombinant Type I PI3K enzymes of the lipid PI(4,5)P2.
DNA fragments encoding human PI3K catalytic and regulatory subunits were isolated from cDNA libraries using standard molecular biology and PCR cloning techniques. The selected DNA fragments were used to generate baculovirus expression vectors. In particular, full length DNA of each of the p110α, p110β and p110δ Type Ia human PI3K p110 isoforms (EMBL Accession Nos. HSU79143, S67334, Y10055 for p110α, p110β and p110δ respectively) were sub-cloned into a pDEST10 vector (Invitrogen Limited, Fountain Drive, Paisley, UK). The vector is a Gateway-adapted version of Fastbac1 containing a 6-His epitope tag. A truncated form of Type Ib human PI3K p110γ isoform corresponding to amino acid residues 144-1102 (EMBL Accession No. X8336A) and the full length human p85α regulatory subunit (EMBL Accession No. HSP13KIN) were also sub-cloned into pFastBac1 vector containing a 6-His epitope tag. The Type Ia p110 constructs were co-expressed with the p85α regulatory subunit. Following expression in the baculovirus system using standard baculovirus expression techniques, expressed proteins were purified using the His epitope tag using standard purification techniques.
DNA corresponding to amino acids 263 to 380 of human general receptor for phosphoinositides (Grp1) PH domain was isolated from a cDNA library using standard molecular biology and PCR cloning techniques. The resultant DNA fragment was sub-cloned into a pGEX 4T1 E. coli expression vector containing a GST epitope tag (Amersham Pharmacia Biotech, Rainham, Essex, UK) as described by Gray et al., Analytical Biochemistry, 2003, 313: 234-245). The GST-tagged Grp1 PH domain was expressed and purified using standard techniques.
Test compounds were prepared as […] stock solutions in DMSO and diluted into water as required to give a range of final assay concentrations. Aliquots (2 μl) of each compound dilution were placed into a well of a Greiner 384-well low volume (LV) white polystyrene plate (Greiner Bio-one, Brunel Way, Stonehouse, Gloucestershire, UK Catalogue No. 784075). […]
Biotinylated-DiC8-PI(3,4,5)P3 (50 nM; Cell Signals Inc., Catalogue No. 107), recombinant purified GST-Grp1 PH protein (2.5 nM) and AlphaScreen Anti-GST donor and acceptor beads (100 ng; Packard Bioscience Limited, Station Road, Pangbourne, Berkshire, UK, Catalogue No. 6760603M) were added and the assay plates were left for about 5 to 20 hours at room temperature in the dark. The resultant signals arising from laser light excitation at 680 nm were read using a Packard AlphaQuest instrument. […]

SMILES | IC50 [µM]
CC(=O)Nc1nc(C)c(-c2cnc(Cl)c(NCc3ccc(F)cc3)c2)s1 [Compound No. 3 within Example 79, N-{5-[6-Chloro-5-(4-fluorobenzylamino)pyridin-3-yl]-4-methyl-1,3-thiazol-2-yl}acetamide] | ~0.2
CC(=O)Nc1nc(C)c(-c2cnc(Cl)c(S(=O)(=O)Nc3ccccc3)c2)s1 [Compound No. 4 within Example 73, N-{5-[6-Chloro-5-(N-phenylsulfamoyl)pyridin-3-yl]-4-methyl-1,3-thiazol-2-yl]acetamide] | ~0.03
CC(=O)Nc1nc(C)c(-c2cnc(Cl)c(NS(C)(=O)=O)c2)s1 [Example 28, N-[5-(6-Chloro-5-methylsulfonylaminopyridin-3-yl)-4-methyl-1,3-thiazol-2-yl]acetamide trifluoroacetate] | ~0.01
